Measured values reported in patent US20240124483A1, “Methods for the Treatment of Fibrotic Disease” (SHY Therapeutics, LLC, priority 2021, published 2024).

Legend:
Assay type in all cases: in vivo
Smad2 phosphorylation = experiment: Phospho-Smad2 analysis of muscle tissue in the D2-mdx mouse model (western blot, densitometry)
From the text: (§1) The experiment described herein was designed to monitor the effects of Compound 9 on two biomarkers related to fibrosis in D2-mdx mice. The first biomarker is Smad2 phosphorylation, and the second is the levels of serum albumin in the different muscle tissues. Fibrosis causes disruption of the fine transparent tubular sheath which envelops the fibers of skeletal muscles, this can result in various molecules from the blood and interstitial fluid leaking into myofibres. A classic example is serum albumin, which can be identified in tissue sections and considered to be hallmark of myofibre permeability.
(§2) Experimental Design: Compound 9 was suspended in 0.5% Hydroxypropyl Methylcellulose (HPMC)/0.1% Tween® 80 to a final concentration of 10 mg/mL. The dosing solutions were prepared prior to the start of the test and were stored in the dark and maintained in frozen aliquots. Doses were thawed prior to administration. Male D2-mdx (JAX Stock No: 013141) mice were sourced from The Jackson Laboratory and housed in solid bottom cages with standard chow and water ad libitum. Dosing was initiated when animals were ˜3 weeks old. Animals were dosed daily by intraperitoneal (IP) injection at 100 mg/kg or vehicle for 3 days. […] Mice were sacrificed by CO2 euthanasia approximately 6 hours after their day 3 dosing. Heart, diaphragm, quadriceps, tibialis anterior (TA) samples were collected at termination on day 3 and snap frozen. These samples were shipped on dry ice for analysis, and were stored at −80° C.
(§3) Tissue protein extraction: Frozen tissues were placed on ice in prechilled tubes with 30 μL/mg with of ice-cold RIPA buffer+Halt™ Protease & Phosphatase Inhibitor Cocktail. Tissue was homogenized with a manual tissue homogenizer then centrifuged at 14,000 RPM at 4° C. for 15 min. Supernatant was removed and protein concentration determined by BCA assay.
(§4) Western blot protocol: Equal amounts of protein (15-50 μg) were separated by SDS-PAGE and transferred to nitrocellulose membranes (Invitrogen by Thermo Fisher Scientific). The membrane was stained with Ponceau S Stain (Boston BioProducts) to verify uniform protein loading. Membranes were blocked with 10% milk and albumin levels were assessed by incubating overnight at 4° C. with albumin antibody (Cell Signaling Technology #4929). Then the membranes were incubated with HRP-conjugated secondary antibody (Jackson Immunoresearch, West Grove, PA). Bands were incubated in Amersham ECL Prime Western Blotting Detection Reagent (GE Healthcare) and visualized using the ChemiDoc MP imaging system (Bio-Rad).
(§5) Western blot images for samples collected from heart (FIG. 2), diaphragm (FIG. 3), quadriceps (FIG. 4), and tibialis anterior (TA, FIG. 5) tissues following termination on day 3 were analyzed, providing the results summarized herein below (derived by densitometry).

[1] = test system: serum albumin in muscle tissues; experiment: Albumin analysis of muscle tissue in the D2-mdx mouse model (western blot, densitometry)
From the text: as §1, §2, §3, §4, §5

[2] = Observation for mortality and signs of pain or distress, D2-mdx mice; details: male D2-mdx mice, 100 mg/kg IP daily for 3 days
Method: as §2

[3] = D2-mdx mice, 100 mg/kg IP, 3 days
[4] = Ratio of Vehicle and Treated, 100 mg/kg IP, 3 days
[5] = Treated, 100 mg/kg IP daily for 3 days, D2-mdx mice, densitometry

With COCCNc1nc(-c2nccn2C)nc2sc(-c3cccc(OC)c3Cl)c(-c3ccccc3)c12 [Compound 9, 6-(2-Chloro-3-methoxyphenyl)-N-(2-methoxyethyl)-2-(1-methyl-1H-imidazol-2-yl)-5-phenylthieno[2,3-d]pyrimidin-4-amine] the “Smad2 phosphorylation in the diaphragm compared to control vehicle mice” value (Smad2 phosphorylation; [3]) was “inhibition of Smad2 phosphorylation”, the “Smad2 phosphorylation in the heart” value (Smad2 phosphorylation; [3]) was “No changes were detected” and the “Phospho-Smad2, Diaphragm, Average, Ratio” value (Smad2 phosphorylation; [4]) was 1.53. The “Phospho-Smad2, Diaphragm, Median, Ratio” value (Smad2 phosphorylation; [4]) was 1.54, the “Phospho-Smad2, Quadriceps, Average, Ratio” value (Smad2 phosphorylation; [4]) was 1.10 and the “Phospho-Smad2, Quadriceps, Median, Ratio” value (Smad2 phosphorylation; [4]) was 0.64. The “Phospho-Smad2, Diaphragm, Average” value (Smad2 phosphorylation; [5]) was 0.18 ± 0.06, the “Phospho-Smad2, Diaphragm, Median” value (Smad2 phosphorylation; [5]) was 0.19 and the “Phospho-Smad2, Quadriceps, Average” value (Smad2 phosphorylation; [5]) was 0.22 ± 0.11. The “Phospho-Smad2, Quadriceps, Median” value (Smad2 phosphorylation; [5]) was 0.28, the “serum albumin levels in the heart” value [1, 3] was “No changes were detected” and the “serum albumin levels in the tibialis anterior and quadricep muscles” value [1, 3] was “clear decrease”. For the same compound, the “Albumin, Quadriceps, Average, Ratio” value [1, 4] was 1.25, the “Albumin, Quadriceps, Median, Ratio” value [1, 4] was 1.21 and the “Albumin, Tibialis anterior, Average, Ratio” value [1, 4] was 1.18. The “Albumin, Tibialis anterior, Median, Ratio” value [1, 4] was 1.26, the “Albumin, Quadriceps, Average” value [1, 5] was 32650 ± 4998 and the “Albumin, Quadriceps, Median” value [1, 5] was 34329. The “Albumin, Tibialis anterior, Average” value [1, 5] was 34522 ± 4321, the “Albumin, Tibialis anterior, Median” value [1, 5] was 33494 and the “findings of overt toxicity” value [2] was “No findings of overt toxicity were observed”.
